{"source": "patent US20070197538A1", "about": "“Anti-vascular and anti-proliferation methods, therapies, and combinations employing specific tyrosine kinase inhibitors” (priority 2004, published 2007)", "key": {"[1]": {"tested_on": "Mouse endothelial cells from pancreas", "assay": "sensitivity of pancreas endothelial cells to Taxotere cytotoxicity", "format": "cell-based", "settings": "with Taxotere; for sensitivity of endothelial cells to cytotoxicity mediated by Taxotere: cells at 33° C.", "protocol": "Mouse endothelial cells from pancreas are maintained in culture at a temperature 33° C. where they are actively dividing."}, "L3.6 pL pancreatic tumor": {"tested_on": "L3.6 pL pancreatic tumor", "assay": "orthotopic human pancreatic cancer L3.6 pL in nude mice", "format": "in vivo", "settings": "combination with Taxotere; for survival rate: 4-6 weeks; for effect of the combination in cancer refractory to chemotherapy: tumor cells resistant to Taxotere (MDR cells)", "protocol": "A pancreatic tumor which is shown to upregulate expression of PDGF AA, BB, A/B at metastatic sites is used for the in vivo studies. Other tumor systems that are known to upregulate expression of PDGF may also be used such as ovarian cancer, prostate cancer, bone metastasis, or breast cancer bone metastasis.\nTumor cells L3.6 pL derived from pancreatic cancer are injected into the pancreas of nude mice. The tumors are grown into detectable lesions.\nTwo days later, the mice are killed and the organs with and without tumors harvested, fixed, and immunostained to evaluate expression of PDGF AA, BB, A/B, PDGF-R (α,β) and status of phosphorylation of PDGF-R (α,β) on tumor cells and organ-specific endothelial cells.\nThe surviving mice are then killed and the size of tumor and metastasis is measured. Fixation of the tissues and staining of the tumor cells are performed. Endothelial cells are examined for division (PCNA), apoptosis (TUNEL), CD31 (endothelial cells). Expression of PDGF AA, BB, A/B, and phosphorylation of PDGF-Rα/β are further studied in these endothelial cells."}, "MV4;11 cells": {"tested_on": "MV4;11 cells", "assay": "intravenous MV4;11 leukemia model in NOD-SCID mice", "format": "in vivo", "settings": "for large infiltrating cells with mitotic figures in bone marrow: H&E-stained sections; for large infiltrating cells with mitotic figures in bone marrow / CD45 positive cells in bone marrow: oral 50-200 mg/kg; for CD45 positive cells in bone marrow: flow cytometry; for survival: oral, 50-200 mg/kg, once daily or 3 times per week", "protocol": "In a subset of animals, bone marrow cell suspensions are prepared by flushing mouse femurs with cold sterile PBS, at experimental timepoints (within 90 days of implantation)."}, "[2]": {"tested_on": "blastic phase chronic myelogenous leukemia (CML)", "settings": "two trials, total of 304 patients; cited from earlier work"}, "accelerated phase CML": {"tested_on": "accelerated phase CML", "settings": "at 24 months; cited from earlier work"}, "Lck": {"target": "T1, Lck (Homo sapiens, UniProt P06239)", "T1 construct": "host or cells: baculovirus system", "T1 sequence (P06239 whole entry)": "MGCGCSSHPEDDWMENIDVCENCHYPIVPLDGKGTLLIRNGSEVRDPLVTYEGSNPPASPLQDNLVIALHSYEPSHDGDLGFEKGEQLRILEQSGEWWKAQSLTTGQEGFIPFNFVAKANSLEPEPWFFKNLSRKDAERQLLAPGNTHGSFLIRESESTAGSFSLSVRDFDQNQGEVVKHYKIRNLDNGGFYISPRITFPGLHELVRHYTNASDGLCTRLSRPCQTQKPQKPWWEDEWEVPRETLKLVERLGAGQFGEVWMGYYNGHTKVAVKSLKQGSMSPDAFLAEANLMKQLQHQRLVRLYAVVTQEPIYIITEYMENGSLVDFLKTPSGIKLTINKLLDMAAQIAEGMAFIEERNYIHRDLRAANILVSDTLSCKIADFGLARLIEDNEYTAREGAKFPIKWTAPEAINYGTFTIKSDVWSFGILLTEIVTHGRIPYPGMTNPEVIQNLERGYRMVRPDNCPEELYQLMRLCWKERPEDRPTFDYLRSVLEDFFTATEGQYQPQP", "settings": "literature; cited from earlier work"}, "FYN": {"target": "FYN (Homo sapiens, UniProt P06241)", "sequence (P06241 whole entry, species assumed)": "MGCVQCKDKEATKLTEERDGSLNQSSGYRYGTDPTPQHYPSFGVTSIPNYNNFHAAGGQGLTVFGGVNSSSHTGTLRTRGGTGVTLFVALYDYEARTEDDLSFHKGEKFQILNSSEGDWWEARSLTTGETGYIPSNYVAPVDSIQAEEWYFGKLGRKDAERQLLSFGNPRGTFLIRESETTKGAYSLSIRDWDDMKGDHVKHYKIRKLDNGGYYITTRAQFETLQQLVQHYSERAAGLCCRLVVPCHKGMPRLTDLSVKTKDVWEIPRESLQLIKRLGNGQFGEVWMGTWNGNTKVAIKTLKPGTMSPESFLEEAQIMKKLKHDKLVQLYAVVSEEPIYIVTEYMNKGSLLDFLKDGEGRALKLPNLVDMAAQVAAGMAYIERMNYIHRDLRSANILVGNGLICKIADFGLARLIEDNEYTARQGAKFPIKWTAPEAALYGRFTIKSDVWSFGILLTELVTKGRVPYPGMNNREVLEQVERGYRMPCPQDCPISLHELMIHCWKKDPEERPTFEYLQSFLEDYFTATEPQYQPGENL", "settings": "literature; cited from earlier work"}, "[3]": {"tested_on": "RS4-11 cells (FLT3-wild type)", "assay": "RS4-11 cell growth, luminescence assay at 72 hours", "format": "cell-based, human", "settings": "with or without 100 ng/mL FLT3 ligand, FIGS. 5 and 6"}, "[4]": {"tested_on": "AML193 cells (wild type FLT3)", "assay": "AML193 cell growth, luminescence assay at 72 hours", "settings": "with or without 100 ng/mL FLT3 ligand, GN963 at concentrations used (30 μM), FIGS. 3 and 4"}}, "note": "Where a name gives a salt, the structure may show the parent alone.", "data": [{"smiles": "CC(C)Oc1ccc2nc(Nc3ccccc3)cnc2c1.Cl", "values": [{"measurement": "melting point", "value": "205 to 210 °C (dec.)"}]}, {"smiles": "COc1cc2ncc(CNC3CCCCC3)nc2cc1OC", "note": "(as salt: HCl) [Example 7, Cyclohexyl-(6,7-dimethoxyquinoxalin-2-ylmethyl)-amine]", "values": [{"measurement": "melting point", "value": "185 to 190 °C (dec.)"}]}, {"smiles": "COc1cc2ncc(N[C@@H]3CC[C@@H](O)[C@H](C)C3)nc2cc1OC", "note": "(stereo in doubt) [GN271, (1R,2R,4R)-4-(6,7-dimethoxy-quinoxalin-2-ylamino)-2-methyl-cyclohexanol]", "values": [{"measurement": "resistance of organ-specific endothelial cells to Taxotere increased by pancreatic tumor-conditioned medium", "setting": "[1]", "value": "reversal of this increased resistance"}, {"measurement": "sensitivity of endothelial cells to cytotoxicity mediated by Taxotere", "setting": "[1]", "value": "increases sensitivity of endothelial cells to cytotoxicity mediated by Taxotere"}, {"measurement": "survival rate", "setting": "L3.6 pL pancreatic tumor", "value": "higher survival rate"}, {"measurement": "effect of the combination in cancer refractory to chemotherapy", "setting": "L3.6 pL pancreatic tumor", "value": "synergistic effect"}, {"measurement": "large infiltrating cells with mitotic figures in bone marrow", "setting": "MV4;11 cells", "value": "reduced numbers of large infiltrating cells with mitotic figures"}, {"measurement": "CD45 positive cells in bone marrow", "setting": "MV4;11 cells", "value": "reduced numbers of CD45 positive cells"}, {"measurement": "survival", "setting": "MV4;11 cells", "value": "prolonged survival"}]}, {"smiles": "Oc1ccc2nc(Nc3ccccc3)cnc2c1", "note": "[Example 4, 2-Anilino-6-quinoxalinol]", "values": [{"measurement": "melting point", "value": "211 to 213", "unit": "°C"}]}, {"smiles": "c1ccc(Nc2cnc3cc(O[C@@H]4CCOC4)ccc3n2)cc1", "note": "[Example 5, Phenyl-[6-(tetrahydrofuran-3-(R)-yl-oxy)quinoxalin-2-yl]amine]", "values": [{"measurement": "melting point", "value": "173 to 175", "unit": "°C"}]}, {"smiles": "COc1cc2ncc(OC3CCCCC3)nc2cc1OC1CCCCC1", "note": "[Example 6, 2,7-Bis-cyclohexyloxy-6-methoxy-quinoxaline]", "values": [{"measurement": "melting point", "value": "75 to 78", "unit": "°C"}]}, {"smiles": "COc1cc2cc(NCC(C)(C)CO)cnc2cc1OC", "note": "[Example 9, 3-(6,7-Dimethoxyquinolin-3-yl-amino)-2,2-dimethyl-propan-1-ol]", "values": [{"measurement": "melting point", "value": "170 to 173.5", "unit": "°C"}]}, {"smiles": "COc1cc2ncc(NC3CCCCC3)nc2cc1N1CCOCC1", "note": "[Example 10, Cyclohexyl-(6-methoxy-7-morpholin-4-yl-quinoxalin-2-yl)-amine]", "values": [{"measurement": "melting point", "value": "194 to 196", "unit": "°C"}]}, {"smiles": "COc1cc2ncc(OC3CC4CC3C(O)C4O)nc2cc1OC", "note": "(centres unmarked) [Example 17, 5-(6,7-Dimethoxyquinoxalin-2-yloxy)-bicyclo [2.2.1]heptane-2,3-diol]", "values": [{"measurement": "melting point", "value": "85 to 88", "unit": "°C"}]}, {"smiles": "COc1cc2ncc(OC3CCC(OC(=O)N(C)C)CC3)nc2cc1OC", "note": "(centres unmarked) [Example 19, Dimethyl-carbamic acid 4-(6,7-dimethoxyquinoxalin-2-yloxy)-cyclohexyl ester]", "values": [{"measurement": "melting point", "value": "152 to 155", "unit": "°C"}]}, {"smiles": "COc1cc2ncc(N[C@H]3CC[C@H](OC(C)=O)CC3)nc2cc1OC", "note": "[Example 21, Acetic acid trans-4-(6,7-dimethoxyquinoxalin-2-ylamino)-cyclohexyl ester]", "values": [{"measurement": "melting point", "value": "176 to 177", "unit": "°C"}]}, {"smiles": "COc1cc2ncc(N[C@@H]3C[C@H]4CC[C@@H]3C4)nc2cc1OC", "note": "[Example 25, (1R,2R,4S)-(+)-Bicyclo[2.2.1]hept-2-yl-(6,7-dimethoxyquinoxalin-2-yl)-amine]", "values": [{"measurement": "melting point", "value": "184 to 186", "unit": "°C"}]}, {"smiles": "COc1cc2ncc(N[C@@H]3C[C@@H]4C[C@H]3C[C@H]4O)nc2cc1OC", "note": "[GN804, (1S,2R,4S,5R)-5-(6,7-Dimethoxyquinoxalin-2-ylamino)-Bicyclo[2.2.1]heptan-2-ol]", "values": [{"measurement": "resistance of organ-specific endothelial cells to Taxotere increased by pancreatic tumor-conditioned medium", "setting": "[1]", "value": "reversal of this increased resistance"}, {"measurement": "sensitivity of endothelial cells to cytotoxicity mediated by Taxotere", "setting": "[1]", "value": "increases sensitivity of endothelial cells to cytotoxicity mediated by Taxotere"}, {"measurement": "survival rate", "setting": "L3.6 pL pancreatic tumor", "value": "higher survival rate"}, {"measurement": "effect of the combination in cancer refractory to chemotherapy", "setting": "L3.6 pL pancreatic tumor", "value": "synergistic effect"}, {"measurement": "large infiltrating cells with mitotic figures in bone marrow", "setting": "MV4;11 cells", "value": "reduced numbers of large infiltrating cells with mitotic figures"}, {"measurement": "CD45 positive cells in bone marrow", "setting": "MV4;11 cells", "value": "reduced numbers of CD45 positive cells"}, {"measurement": "survival", "setting": "MV4;11 cells", "value": "prolonged survival"}]}, {"smiles": "Cc1ccc(NC(=O)c2ccc(CN3CCN(C)CC3)cc2)cc1Nc1nccc(-c2cccnc2)n1", "note": "[Gleevec, imatinib mesylate]", "values": [{"measurement": "estimated 1-year survival", "setting": "[2]", "value": "under 35%"}, {"measurement": "major cytogenetic response rate", "setting": "[2]", "value": 16, "unit": "%"}, {"measurement": "incidence of disease progression", "setting": "accelerated phase CML", "value": 50, "unit": "%"}]}, {"smiles": "Cc1ccc(-c2nn(C(C)(C)C)c3ncnc(N)c23)cc1", "note": "[PP1]", "values": [{"measurement": "LCK inhibitory potency", "setting": "Lck", "value": "low nanomolar potency"}, {"measurement": "FYN inhibitory potency", "setting": "FYN", "value": "low nanomolar potency"}]}, {"smiles": "CN[C@@H]1C[C@H]2O[C@@](C)([C@@H]1OC)n1c3ccccc3c3c4c(c5c6ccccc6n2c5c31)C(=O)NC4", "note": "[staurosporine, reference compound]", "values": [{"measurement": "effect on RS4-11 cell growth", "setting": "[3]", "value": "inhibits RS4-11 cell growth"}, {"measurement": "effect on AML193 cell growth", "setting": "[4]", "value": "inhibits AML193 cell growth"}]}]}
